According to patent US8859232B2, “Genetically encoded photomanipulation of protein and peptide activity” (The University of North Carolina at Chapel Hill, priority 2009, dated 2014):

System: MEF cells expressing mVenus-tagged PA-Rac1
Experiment: Inhibitor studies: localized activation of PA-Rac1 in inhibitor-treated MEF cells
Format: cell-based, mouse
Settings: Blebbistatin 1 μM, Y-27632 10 μM; for effect of inhibitor on PA-Rac1 light-induced protrusion: FIG. 6C; for effect of inhibitor on the ability of Rac1 to specify the direction of movement: FIG. 6D
Description: Inhibitor studies: MEF cells expressing mVenus-tagged PA-Rac1 were incubated with 1 μM myosin II inhibitor Blebbistatin, 1 μM MLCK inhibitor ML-7, or 10 μM ROCK inhibitor Y-27632 (Calbiochem). Cells underwent the cell shape changes previously described (Katsumi et al., J. Cell Biol. 158:153 (2002)) and then reached a stable state within 30 minutes. After this cells were irradiated with the 458 nm laser at a 10-μm spot to induce PA-Rac activation.
Protrusion/retraction analysis: Fluorescence images of MEF cells expressing mVenus-tagged PA-Rac1 and its mutants were masked based on intensity thresholding to produce binary images. Regions of protrusion were isolated by subtracting the binary image at a given time point from that at time 0. Conversely the binary images of retraction were obtained. Areas not part of protrusions or retractions, those that overlapped the time 0 image, were obtained by subtracting the above two images from that at time 0. Each binary image was assigned a different color: red=protrusion, blue=retraction, green=area overlapping with time 0, and white=background. These operations were carried out using MetaMorph software.
Polarity index calculation: To obtain the polarity index (cos θ) of the migrating MEF cells, X and Y coordinates were obtained for the centroid before movement (x0,y0), the centroid after movement (x1,y1), and for the center of the irradiation spot (x2,y2), using MetaMorph software. The cos and sin values of the angles were obtained using simple triangle calculations. First two angles were defined using an arbitrarily selected horizontal line θ1=angle between the arbitrary line and the line from (x0,y0) to (x1,y1), and θ2=angle between the arbitrary line and the line between (x0,y0) and (x2,y2). The cos used to characterize polarity (see FIG. 6) was obtained using the following formula: cos θ=cos(θ1−θ2)=cos θ1 cos θ2+sin θ1 sin θ2

SMILES	effect of inhibitor on PA-Rac1 light-induced protrusion	effect of inhibitor on the ability of Rac1 to specify the direction of movement
Cc1ccc2c(c1)C(=O)C1(O)CCN(c3ccccc3)C1=N2 (stereo not shown) [Blebbistatin]	little effect	randomization of movement
C[C@@H](N)[C@H]1CC[C@H](C(=O)Nc2ccncc2)CC1 [Y-27632]	strongly reduced protrusion	little effect
